The subject of data set [1] is m2 receptors on CHO cells. In words: Expression of m2 receptors on CHO cells transfected with DNA for the m2 receptor (tritiated QNB binding). The class given is cell-based. Particulars: for Effect on receptor expression - given as % increase compared to control (negative values in brackets): DMSO control, NS = No significant effect. On the procedure: 1. Chinese hamster ovary (CHO) cells transfected with the a DNA fragment coding for a muscarinic receptor. The cell line used-for the majority of the experiments was a cell line expressing the m2 receptor.
The-effects of various compounds on the expression of m2 receptors on CHO cells transfected with DNA for the m2 receptor were investigated. Receptor numbers were assayed using tritiated QNB binding and subtracting non-specific binding. Compounds were dissolved in DMSO and DMSO was used as a control. Compounds were tested at a range of final concentrations. Compounds were also tested in the presence and absence of tamoxifen to try to distinguish an oestrogen receptor mediated mechanism. The results are summarized in the Table 2 below, where the compound used in the invention appears in bold, and data on other sapogenins is given for comparative purposes: […]

Data set [2] deals with muscarinic receptors on cultured cardiac muscle cells. In words: Muscarinic receptor expression on cultured neonatal cardiac muscle cells (tritiated QNB binding). In kind it is cell-based, Sprague Dawley rats. Particulars: NS = No significant effect. As for the experimental part: 3. Cultured cardiac muscle cells obtained from neonatal Sprague Dawley rats. The cardiac muscle cells express muscarinic receptors, typically m2. The level of these receptors fails on prolonged culture and the effects of compounds of interest in preventing the fall in receptor numbers was investigated.
Cardiac muscle cells were isolated from the ventricular muscle of neonatal Sprague Dawley rats using standard techniques. Cells were cultured in vitro and muscarinic receptor numbers expressed on cell surfaces membrane fragments after homogenization of cells harvested at various time points were estimated using specific binding of tritiated QNB. […] The experiments were therefore designed to investigate the effects of the various compounds in inhibiting this decline in receptor numbers.

The test system of another data set is oestrogen receptor. In words: Oestrogenic activity. The source says:
(§1) In identifying compounds that would have use in the treatment of SDAT and other diseases characterized by reductions in receptor numbers or synaptic transmission, the inventors have given consideration to the need to identify compounds that would-have the desired effect but would be devoid of any oestrogenic effects, as these would be unacceptable, particularly in male patients. A number of the compounds claimed to have activity in patent application DE 4303214A1 have marked oestrogenic activity and are therefore unacceptable.

The next data set addresses T1, Progesterone receptor (Homo sapiens, UniProt P06401).
T1 sequence (P06401 1-933): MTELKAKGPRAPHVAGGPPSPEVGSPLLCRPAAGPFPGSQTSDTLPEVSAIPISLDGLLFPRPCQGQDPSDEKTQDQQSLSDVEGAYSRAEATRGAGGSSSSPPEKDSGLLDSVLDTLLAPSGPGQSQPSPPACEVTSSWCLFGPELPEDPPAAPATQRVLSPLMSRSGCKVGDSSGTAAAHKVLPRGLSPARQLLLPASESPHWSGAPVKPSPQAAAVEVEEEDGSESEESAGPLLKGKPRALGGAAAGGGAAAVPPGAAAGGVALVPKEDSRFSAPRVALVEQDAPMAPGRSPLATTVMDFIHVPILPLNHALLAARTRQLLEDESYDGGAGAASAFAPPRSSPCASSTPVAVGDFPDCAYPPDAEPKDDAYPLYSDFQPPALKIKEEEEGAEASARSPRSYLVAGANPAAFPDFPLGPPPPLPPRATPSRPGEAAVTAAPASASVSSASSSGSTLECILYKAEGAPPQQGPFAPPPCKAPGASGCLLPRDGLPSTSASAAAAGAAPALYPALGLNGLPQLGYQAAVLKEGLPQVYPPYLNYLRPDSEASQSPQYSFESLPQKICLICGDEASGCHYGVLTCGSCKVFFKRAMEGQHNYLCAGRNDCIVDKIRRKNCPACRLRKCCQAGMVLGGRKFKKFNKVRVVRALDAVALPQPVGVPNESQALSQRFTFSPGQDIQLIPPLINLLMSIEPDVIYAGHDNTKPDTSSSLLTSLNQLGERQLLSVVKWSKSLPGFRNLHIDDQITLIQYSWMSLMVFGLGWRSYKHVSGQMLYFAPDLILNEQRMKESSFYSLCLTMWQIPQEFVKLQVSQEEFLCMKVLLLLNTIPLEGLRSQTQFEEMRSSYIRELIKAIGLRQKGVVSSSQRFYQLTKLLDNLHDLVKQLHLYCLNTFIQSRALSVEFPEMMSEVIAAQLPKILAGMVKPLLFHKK
In words: Activity at steroid receptors: progesterone.
Description: as §1

In another data set the target is T2, Glucocorticoid receptor (Homo sapiens, UniProt P04150).
T2 sequence (P04150 1-777): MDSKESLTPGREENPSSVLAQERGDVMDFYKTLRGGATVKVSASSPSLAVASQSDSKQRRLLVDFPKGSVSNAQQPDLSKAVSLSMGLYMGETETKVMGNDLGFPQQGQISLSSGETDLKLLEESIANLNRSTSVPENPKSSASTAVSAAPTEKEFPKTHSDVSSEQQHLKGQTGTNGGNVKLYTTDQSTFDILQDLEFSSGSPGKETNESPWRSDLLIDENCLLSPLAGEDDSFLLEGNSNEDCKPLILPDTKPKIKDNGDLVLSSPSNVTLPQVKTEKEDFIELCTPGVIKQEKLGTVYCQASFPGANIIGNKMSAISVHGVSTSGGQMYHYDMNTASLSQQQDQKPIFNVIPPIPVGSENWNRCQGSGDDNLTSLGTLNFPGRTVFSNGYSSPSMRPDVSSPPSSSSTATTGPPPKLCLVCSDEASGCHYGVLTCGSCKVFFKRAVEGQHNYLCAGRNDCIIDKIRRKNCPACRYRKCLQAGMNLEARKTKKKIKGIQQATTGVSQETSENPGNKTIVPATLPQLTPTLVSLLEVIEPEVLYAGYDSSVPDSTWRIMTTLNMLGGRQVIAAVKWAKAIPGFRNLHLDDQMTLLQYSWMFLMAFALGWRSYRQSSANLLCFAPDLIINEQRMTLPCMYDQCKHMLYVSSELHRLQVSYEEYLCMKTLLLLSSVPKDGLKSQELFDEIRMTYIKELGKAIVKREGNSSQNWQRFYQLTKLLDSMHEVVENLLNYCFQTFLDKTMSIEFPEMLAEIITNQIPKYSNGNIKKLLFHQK
In words: Activity at steroid receptors: glucocorticoid.
Description: as §1

The next data set concerns the target T3, Testosterone receptor (Homo sapiens, UniProt P10275).
T3 sequence (P10275 1-920): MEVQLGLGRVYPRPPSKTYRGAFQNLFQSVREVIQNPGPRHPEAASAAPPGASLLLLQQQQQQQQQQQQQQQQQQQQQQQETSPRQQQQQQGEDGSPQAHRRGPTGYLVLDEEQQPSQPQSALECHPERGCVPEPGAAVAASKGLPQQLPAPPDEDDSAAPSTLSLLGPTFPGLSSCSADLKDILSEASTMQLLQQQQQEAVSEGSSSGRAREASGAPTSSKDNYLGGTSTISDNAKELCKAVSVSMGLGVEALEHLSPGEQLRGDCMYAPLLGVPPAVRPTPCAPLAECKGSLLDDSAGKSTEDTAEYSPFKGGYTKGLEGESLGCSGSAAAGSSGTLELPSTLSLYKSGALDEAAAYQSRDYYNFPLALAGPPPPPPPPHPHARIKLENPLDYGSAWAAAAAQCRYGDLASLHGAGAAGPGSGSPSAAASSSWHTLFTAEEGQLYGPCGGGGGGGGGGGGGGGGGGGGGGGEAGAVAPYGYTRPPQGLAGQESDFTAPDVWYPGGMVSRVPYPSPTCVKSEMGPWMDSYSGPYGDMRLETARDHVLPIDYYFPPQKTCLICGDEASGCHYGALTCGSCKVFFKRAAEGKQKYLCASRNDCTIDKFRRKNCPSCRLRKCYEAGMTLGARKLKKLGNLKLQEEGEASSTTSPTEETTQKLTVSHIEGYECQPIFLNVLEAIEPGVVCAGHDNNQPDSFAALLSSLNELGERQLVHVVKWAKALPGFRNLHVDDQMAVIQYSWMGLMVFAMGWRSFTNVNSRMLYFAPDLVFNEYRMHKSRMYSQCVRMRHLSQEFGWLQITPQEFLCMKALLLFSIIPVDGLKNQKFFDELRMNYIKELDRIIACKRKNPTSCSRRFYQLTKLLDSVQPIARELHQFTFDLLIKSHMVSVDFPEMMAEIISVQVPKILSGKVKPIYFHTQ
In words: Activity at steroid receptors: testosterone.
Description: as §1

Data set [3] concerns muscarinic receptors in PC12 cells. In words: Muscarinic receptor number in PC12 cells incubated with β-amyloid (radio-labeled ligand binding). In kind it is cell-based. As for the experimental part:
Other in vitro assays have been employed to establish the effects of smilagenin. In particular various neuroblastoma cell lines including SKN-SN and SH-SY5Y cells as well as phaechromoacytoma cell lines have been cultured in vitro in the presence of β-amyloid fragments or serum depletion. […] These techniques included Trypan blue exclusion, chemiluminescence and release of lactate dehydrogenase. Of most interest was the observation that incubation of cells, in particular PC12 cells, with β-amyloid reduced the number of muscarinic receptors measured using radio-labeled ligand binding techniques.

For data set [4], the system named is recombinant human muscarinic receptors in CHO cells. In words: Muscarinic receptor density in CHO cells expressing recombinant human muscarinic receptors ([3H]-QNB). The class given is cell-based. As to conditions: smilagenin at 1 and 10 μM; FIG. 2. As for the experimental part: In a CHO cell line expressing recombinant human muscarinic receptors in vitro, the number of muscarinic receptors tends to decline with time. Smilagenin (1-10 μM) incubated for 72 hours increases muscarinic receptor density.
Effect of smilagenin on muscarinic receptor density in CHO cells expressing recombinant human muscarinic receptors.
Chinese hamster ovary (CHO) cells expressing high levels of receptor (˜2.2 pmoles receptor/mg protein) were cultured in flasks (150 ml) for 24 hours before the start of the experiment. Vehicle (DMSO) and smilagenin (at 1 and 10 μM) were added to the medium for 48 h. The culture medium was discarded, the cells scraped off and resuspended in Hanks solution, centrifuged and m-receptor levels determined by incubating with [^3H]-QNB for 30 min followed by liquid scintillation counting. Protein levels were determined by a micro Lowry method.

Data set [5] concerns muscarinic (M) receptor in the brain. In words: Single point analysis of brain M receptor density in aged rats. Particulars: 18 mg/kg/day in chow over 3 months; 23-month-old rats; FIG. 3. The class given is in vivo, Sprague-Dawley rats. As for the experimental part:
Methods: Single point analysis of brain M receptor density.
Sprague-Dawley rats, 23-month-old, (i.e. aged) were divided into 2 groups, aged-control and aged+smilagenin. Smilagenin (18 mg/kg/day) was mixed in the chow over the 3 month period; Male 4-6 month old rats acted as young controls. At the end of the 3-month treatment period, pairs of treated and control animals were sacrificed by cervical dislocation and the intact brain removed. Single point analysis of brain M receptor density was obtained.

The subject of a further data set is aged Sprague-Dawley rats. In words: Cognitive function in the Y-maze test in aged rats. The class given is in vivo. As to conditions: 18 mg/kg/day in chow, 3 months intake; rats aged 23 months; FIG. 4. As for the experimental part: Methods: Cognitive function in the Y-maze test
Sprague-Dawley rats aged 23 months (i.e. aged) were divided into aged-control or aged+smilagenin treatment group. Rats aged 3 to 4 months acted as young controls. The treatment group received 18 mg/kg/day of smilagenin in chow. Chow without smilagenin was given to each rat after the chow containing smilagenin had been consumed. Three months later the animals were tested in the Y-maze as follows; an equilateral Y-shaped maze was used composed of three 45 cm arms with copper rods in the floor at the end of each arm which conduct electricity and which were 0.2 cm in diameter, 14 cm in length and with a 1 cm gap between them. There were 15 W signal lights at each end. A safe region was indicated by a light signal in an arm where there was no electricity. If a rat moved to a safe region, a correct reaction was recorded. If it moved to an arm where there was no light, an error reaction was recorded. Following the response, an electric shock was again given after a 5 seconds interval. Twenty trials in total were conducted and the correct reaction rate was obtained: number of correct reactions/(20)/mean response time. Seven such training sessions were completed over seven days. Memory tests were then repeated 15 and 30 days later (=4 months) using the same techniques as just described.

Where [6] appears, read: molar concentration of compound 10^−5.

m2 receptors on CHO cells, sequence (P08172 whole entry, the tested form may be a part): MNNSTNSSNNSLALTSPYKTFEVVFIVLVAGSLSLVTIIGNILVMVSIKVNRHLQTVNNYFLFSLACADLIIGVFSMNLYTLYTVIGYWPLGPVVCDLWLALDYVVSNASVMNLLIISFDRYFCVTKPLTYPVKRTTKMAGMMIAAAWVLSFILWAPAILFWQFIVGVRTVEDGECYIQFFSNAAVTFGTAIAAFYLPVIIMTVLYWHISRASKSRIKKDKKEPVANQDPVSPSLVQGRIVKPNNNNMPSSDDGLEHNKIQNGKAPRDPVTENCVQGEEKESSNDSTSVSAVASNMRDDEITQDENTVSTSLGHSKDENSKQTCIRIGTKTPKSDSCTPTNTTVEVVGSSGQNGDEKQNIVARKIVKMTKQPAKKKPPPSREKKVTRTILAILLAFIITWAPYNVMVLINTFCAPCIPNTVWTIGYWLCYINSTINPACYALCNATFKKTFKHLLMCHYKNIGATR
muscarinic receptors on cultured cardiac muscle cells, sequence (P10980 whole entry, the tested form may be a part): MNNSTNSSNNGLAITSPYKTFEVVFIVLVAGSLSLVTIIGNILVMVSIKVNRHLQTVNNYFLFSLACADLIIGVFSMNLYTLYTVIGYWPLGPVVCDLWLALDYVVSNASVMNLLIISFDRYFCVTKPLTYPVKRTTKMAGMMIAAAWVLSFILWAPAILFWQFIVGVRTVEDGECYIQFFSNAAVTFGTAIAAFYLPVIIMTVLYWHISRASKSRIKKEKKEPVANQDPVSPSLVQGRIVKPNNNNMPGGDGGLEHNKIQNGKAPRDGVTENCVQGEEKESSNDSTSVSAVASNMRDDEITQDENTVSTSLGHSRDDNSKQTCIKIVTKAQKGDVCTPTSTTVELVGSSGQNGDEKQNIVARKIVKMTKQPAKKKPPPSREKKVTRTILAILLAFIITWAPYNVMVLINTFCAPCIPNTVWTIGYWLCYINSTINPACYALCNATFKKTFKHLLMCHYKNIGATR

For `C[C@@H]1CC[C@@]2(OC1)O[C@H]1C[C@H]3[C@@H]4C[C@@H](O)[C@@]5(O)C[C@@H](O)CC[C@]5(C)[C@H]4CC[C@]3(C)[C@H]1[C@@H]2C` [Anzurogenin D, reference compound], in [1] (setting [6]), the “Effect on receptor expression - given as % increase compared to control (negative values in brackets)” value was determined as 22%. The “Concentration of compound causing a significant increase in number of receptors expressed on neonatal cardiac muscle after 10 days in vitro culture” value in data set [2] is reported as 10^−6M.

Turning to Astragaloside, the “Concentration of compound causing a significant increase in number of receptors expressed on neonatal cardiac muscle after 10 days in vitro culture” value in [2] is 10^−5M.

Turning to smilagenin, the “Effect on receptor expression - given as % increase compared to control (negative values in brackets)” value came to 57% in data set [1] (setting [6]) and 18% in data set [1] (molar concentration of compound 10^−6). For the same molecule, in data set [1] (tested in the presence and absence of tamoxifen), the “Effect of tamoxifen on the increase in muscarinic receptor number on CHO cells” value is reported as “not antagonized by tamoxifen”. Also, the “Concentration of compound causing a significant increase in number of receptors expressed on neonatal cardiac muscle after 10 days in vitro culture” value in [2] was 10^−6M. Moreover, the Oestrogenic activity result in the data set with oestrogen receptor was “does not display oestrogenic activity”. On Progesterone receptor, the “Activity at progesterone receptor” value is given as “no activity”. Besides, the “Activity at glucocorticoid receptor” value on Glucocorticoid receptor was “no activity”. In addition, at Testosterone receptor, the “Activity at testosterone receptor” value was “no activity”. Further, the “Effect on β-amyloid-induced reduction in muscarinic receptor numbers” value in data set [3] is recorded as “ameliorated”. Moreover, the “Effect on muscarinic receptor number/density over the culturing period” value in data set [4] is “prevents the decrease in muscarinic receptor number in a concentration-dependent manner”. Further, the “Brain M receptor numbers compared to aged controls” value in data set [5] is “increased M receptor numbers”. Also, the “Cognitive function (learning and memory performance) in Y-maze” value in the data set with aged Sprague-Dawley rats was “reversed the decline in cognitive function”.

The values above are taken from patent US7368137B2, “Smilagenin and its use” (priority 1999, dated 2008).
